What was measured:
α1a-AR = biological target: T1, α1a-AR (Homo sapiens, UniProt P35348); test: α1-Adrenergic receptor radio-ligand (125I-HEAT) binding assay, α1a subtype; details: COS-7 cell membranes, 125I-HEAT
T1 construct: expressed in transfected cells; host or cells: COS-7
T1 sequence (P35348 1-466): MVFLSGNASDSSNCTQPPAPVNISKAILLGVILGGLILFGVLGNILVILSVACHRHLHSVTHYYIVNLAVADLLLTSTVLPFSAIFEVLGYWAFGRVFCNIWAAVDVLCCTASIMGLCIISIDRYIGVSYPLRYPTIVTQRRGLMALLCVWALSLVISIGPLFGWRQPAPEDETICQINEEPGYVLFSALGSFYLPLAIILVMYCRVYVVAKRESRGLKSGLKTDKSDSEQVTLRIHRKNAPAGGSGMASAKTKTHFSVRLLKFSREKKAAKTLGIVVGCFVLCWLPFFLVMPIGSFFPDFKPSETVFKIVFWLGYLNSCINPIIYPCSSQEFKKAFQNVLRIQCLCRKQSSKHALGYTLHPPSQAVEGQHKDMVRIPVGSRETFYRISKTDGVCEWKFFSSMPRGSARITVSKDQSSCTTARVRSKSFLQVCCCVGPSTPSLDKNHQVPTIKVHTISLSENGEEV
Protocol: α1-Adrenergic Receptor Binding Assay: Preparation of COS Cell Membranes
Membranes were prepared from COS-7 cells that had been transfected with one of the three α1-AR subtypes by the following method. COS cells from ten 100 mm tissue culture plates were scraped into 5 mL TE (50 mM Tris-HCl, 5 mM EDTA, pH 7.4). The cell suspension was disrupted with a Brinkman Polytron, setting 8, for 10 sec. The disrupted cells were centrifuged at 1000×g for 10 min at 4° C. Supernatants were centrifuged at 34,500×g for 20 min at 4° C. The membrane pellets were suspended in 2 mL TNE (50 mM Tris-HCl, 5 mM EDTA, 150 mM NaCl, pH7.4). An aliquot of the membrane suspension was stored at −70° C. until use. The protein concentration was determined using the BioRad DC protein assay kit following membrane solubilization with Triton X-100.
Radio-Ligand Binding Assay
Triplicate determinations of radio-ligand binding in the presence of increasing: concentrations of testing compound were made. The reagents were added to 96-well polypropylene plate wells using the Biomek 1000 robot (Beckman Instruments). Each assay well contained 140 μl TNE, 25 μL ^125I-HEAT (specific activity 2200 Ci/mmol, Dupont-NEN, 50 pM final), 10 μL testing compound dissolved in DMSO (1 pM to 10 μM in half-log increments, final), and 25 μL appropriate α1-AR membrane subtype suspension in TNE (0.5 ng/μL for the α1a and α1b subtypes and 13 ng/μL for the α1d subtype). The plate was incubated at rt for 1 hr. The contents of the wells were filtered through a GF/C membrane Unifilter plate (Packard Instruments) using the Packard Filtermate cell harvester. The filter plates were dried in a vacuum oven for 30 min at 40° C. 25 μL Microscint 20 liquid scintillation fluid (Packard Instuments) was added to each well. The radioactive content was analyzed in the TopCount microplate scintillation counter (Packard Instruments).

α1d-AR = biological target: T2, α1d-AR (Homo sapiens, UniProt P25100); test: α1-Adrenergic receptor radio-ligand (125I-HEAT) binding assay, α1d subtype; details: COS-7 cell membranes, 125I-HEAT; read-out: Receptor Binding, Ki α1d-AR
T2 construct: expressed in transfected cells; host or cells: COS-7
T2 sequence (P25100 1-572): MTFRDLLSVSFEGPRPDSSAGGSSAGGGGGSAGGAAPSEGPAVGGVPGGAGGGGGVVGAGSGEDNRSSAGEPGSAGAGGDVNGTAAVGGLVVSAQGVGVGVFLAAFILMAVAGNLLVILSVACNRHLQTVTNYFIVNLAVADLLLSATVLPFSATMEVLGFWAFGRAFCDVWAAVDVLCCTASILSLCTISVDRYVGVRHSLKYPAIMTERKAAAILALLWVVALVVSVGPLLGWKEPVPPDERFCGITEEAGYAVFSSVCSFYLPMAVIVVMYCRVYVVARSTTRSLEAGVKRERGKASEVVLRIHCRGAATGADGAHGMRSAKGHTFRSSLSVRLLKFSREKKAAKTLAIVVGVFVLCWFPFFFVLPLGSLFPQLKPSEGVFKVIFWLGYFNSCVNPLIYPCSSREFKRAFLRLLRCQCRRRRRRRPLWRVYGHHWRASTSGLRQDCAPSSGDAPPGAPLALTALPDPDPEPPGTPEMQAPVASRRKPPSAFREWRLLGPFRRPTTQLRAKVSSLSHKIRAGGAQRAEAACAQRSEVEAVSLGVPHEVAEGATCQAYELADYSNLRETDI

α1b-AR = biological target: T3, α1b-AR (Homo sapiens, UniProt P35368); test: α1-Adrenergic receptor radio-ligand (125I-HEAT) binding assay, α1b subtype; details: Receptor Binding, Ki α1b-AR, COS-7 cell membranes, 125I-HEAT
T3 sequence (P35368 1-520): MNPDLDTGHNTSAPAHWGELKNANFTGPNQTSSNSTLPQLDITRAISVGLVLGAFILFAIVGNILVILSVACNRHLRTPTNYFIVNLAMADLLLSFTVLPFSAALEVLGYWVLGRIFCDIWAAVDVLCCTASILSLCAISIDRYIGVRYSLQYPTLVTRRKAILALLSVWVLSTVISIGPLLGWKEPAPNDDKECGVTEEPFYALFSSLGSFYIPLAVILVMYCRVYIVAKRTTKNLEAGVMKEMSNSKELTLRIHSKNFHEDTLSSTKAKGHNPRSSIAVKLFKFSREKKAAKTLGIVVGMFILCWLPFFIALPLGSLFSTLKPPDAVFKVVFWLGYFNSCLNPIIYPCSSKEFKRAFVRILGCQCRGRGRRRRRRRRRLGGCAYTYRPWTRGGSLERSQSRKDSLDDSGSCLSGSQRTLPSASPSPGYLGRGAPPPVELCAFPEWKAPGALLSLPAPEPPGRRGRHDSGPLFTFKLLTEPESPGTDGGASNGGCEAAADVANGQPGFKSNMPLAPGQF

| Structure (SMILES) | Ki (α1a-AR) [nM] | Ki (α1d-AR) [nM] | Ki (α1b-AR) [nM] |
| --- | --- | --- | --- |
| CC(C)Oc1ccccc1N1CCN([C@H]2CC[C@H](NS(=O)(=O)c3ccccc3)CC2)CC1 [Cpd 53] | 2.7 | 55 | 487 |
| CC(C)Oc1ccccc1N1CCN([C@H]2CC[C@H](NS(=O)(=O)c3ccccc3[N+](=O)[O-])CC2)CC1 [Cpd 54] | 1 | 27 | 236 |
| CC(C)Oc1ccccc1N1CCN([C@H]2CC[C@@H](NS(=O)(=O)Cc3ccccc3)CC2)CC1 [Cpd 57, N-cis-{4-[4-(2-Isopropoxy-phenyl)-piperazin-1-yl]-cyclohexyl}-C-phenyl-methanesulfonamide] | 1.2 | 3.6 | 82 |
| CC(C)Oc1ccccc1N1CCN([C@H]2CC[C@@H](NS(=O)(=O)c3cccc4cccnc34)CC2)CC1 [Cpd 58, Quinoline-8-sulfonic acid N-cis-{4-[4-(2-isopropoxy-phenyl)-piperazin-1-yl]-cyclohexyl}-amide] | 8.3 | 4.3 | 116 |
| CC(C)Oc1ccccc1N1CCN([C@H]2CC[C@@H](NS(=O)(=O)c3cccnc3)CC2)CC1 [Cpd 59, Pyridine-3-sulfonic acid N-cis-{4-[4-(2-isopropoxy-phenyl)-piperazin-1-yl]-cyclohexyl}-amide] | 5 | 46 | 400 |
| COc1ccncc1S(=O)(=O)N[C@H]1CC[C@@H](N2CCN(c3ccccc3OC(C)C)CC2)CC1 [Cpd 60, 4-Methoxy-pyridine-3-sulfonic acid N-cis-{4-[4-(2-isopropoxy-phenyl)-piperazin-1-yl]-cyclohexyl}-amide] | 4.9 | 9.4 | 169 |
| CC(C)Oc1ccccc1N1CCN([C@H]2CC[C@@H](NS(=O)(=O)c3cnc(Cl)c(Br)c3)CC2)CC1 [Cpd 61, 5-Bromo-6-chloro-pyridine-3-sulfonic acid N-cis-{4-[4-(2-isopropoxy-phenyl)-piperazin-1-yl]-cyclohexyl}-amide] | 14.4 | 0.14 | 125 |
| CC(C)Oc1ccccc1N1CCN([C@H]2CC[C@H](NS(=O)(=O)Cc3ccccc3)CC2)CC1 [Cpd 62, N-trans-{4-[4-(2-Isopropoxy-phenyl)-piperazin-1-yl]-cyclohexyl}-C-phenyl-methanesulfonamide] | 3.9 | 12 | 200 |
| CC(C)Oc1ccccc1N1CCN([C@H]2CC[C@H](NS(=O)(=O)c3cccc4cccnc34)CC2)CC1 [Cpd 63, Quinoline-8-sulfonic acid N-trans-{4-[4-(2-isopropoxy-phenyl)-piperazin-1-yl]-cyclohexyl}-amide] | 0.5 | 22.1 | 77.6 |
| CC(C)Oc1ccccc1N1CCN([C@H]2CC[C@H](NS(=O)(=O)c3cccnc3)CC2)CC1 [Cpd 64, Pyridine-3-sulfonic acid N-trans-{4-[4-(2-isopropoxy-phenyl)-piperazin-1-yl]-cyclohexyl}-amide] | 5.8 | 5.5 | 192 |
| COc1ccncc1S(=O)(=O)N[C@H]1CC[C@H](N2CCN(c3ccccc3OC(C)C)CC2)CC1 [Cpd 65, 4-Methoxy-pyridine-3-sulfonic acid N-trans-{4-[4-(2-isopropoxy-phenyl)-piperazin-1-yl]-cyclohexyl}-amide] | 13.4 | 76 | 268 |
| CC(C)Oc1ccccc1N1CCN([C@H]2CC[C@H](NS(=O)(=O)c3cnc(Cl)c(Br)c3)CC2)CC1 [Cpd 66, 5-Bromo-6-chloro-pyridine-3-sulfonic acid N-trans-{4-[4-(2-isopropoxy-phenyl)-piperazin-1-yl]-cyclohexyl}-amide] | 3.5 | 14.6 | 279 |
| CCN([C@H]1CC[C@@H](N2CCN(c3ccccc3OC(C)C)CC2)CC1)S(=O)(=O)c1ccc(OC)c(OC)c1 [Cpd 67, N-Ethyl-N-cis-{4-[4-(2-isopropoxy-phenyl)-piperazin-1-yl]-cyclohexyl}-3,4-dimethoxy-benzenesulfonamide] | 15 | 22 | 326 |
| CCN([C@H]1CC[C@H](N2CCN(c3ccccc3OC(C)C)CC2)CC1)S(=O)(=O)c1ccc(OC)c(OC)c1 [Cpd 68, N-Ethyl-N-trans-{4-[4-(2-isopropoxy-phenyl)-piperazin-1-yl]-cyclohexyl}-3,4-dimethoxy-benzenesulfonamide] | 23 | 6.7 | 109 |
| COc1ccc(S(=O)(=O)N[C@H]2CC[C@H](N3CCN(c4ccccc4OCC(F)(F)F)CC3)CC2)cc1OC [Cpd 70] | 54.2 | 8.3 | 34.8 |
| COc1ccc(S(=O)(=O)N[C@H]2CC[C@@H](N3CCN(c4ccc(F)cc4OC(C)C)CC3)CC2)cc1OC [Cpd 71, N-cis-{4-[4-(4-Fluoro-2-isopropoxy-phenyl)-piperazin-1-yl]-cyclohexyl}-3,4-dimethoxy-benzenesulfonamide] | 14.9 | 5.9 | 711 |
| COc1ccc(S(=O)(=O)N[C@H]2CC[C@H](N3CCN(c4ccc(F)cc4OC(C)C)CC3)CC2)cc1OC [Cpd 72, N-trans-{4-[4-(4-Fluoro-2-isopropoxy-phenyl)-piperazin-1-yl]-cyclohexyl}-3,4-dimethoxy-benzenesulfonamide] | 9 | 12.2 | 146 |
| COc1ccc(Cl)cc1S(=O)(=O)N[C@H]1CC[C@@H](N2CCN(c3ccc(F)cc3OC(C)C)CC2)CC1 [Cpd 73, 5-Chloro-N-cis-{4-[4-(4-fluoro-2-isopropoxy-phenyl)-piperazin-1-yl]-cyclohexyl}-2-methoxy-benzenesulfonamide] | 598 | 134 | 81 |
| CC(C)Oc1cc(F)ccc1N1CCN([C@H]2CC[C@@H](NS(=O)(=O)c3cc(Cl)ccc3F)CC2)CC1 [Cpd 74, 5-Chloro-2-fluoro-N-cis-{4-[4-(4-fluoro-2-isopropoxy-phenyl)-piperazin-1-yl]-cyclohexyl}-benzenesulfonamide] | 5.6 | 2.2 | 101 |

Reference: patent US20060173015A1, “Cyclohexyldiamines as selective alpha 1a/1d adrenoreceptor antagonists for the treatment of benign prostatic hypertrophy and lower urinary tract symptoms” (priority 2004, published 2006)
